Results as given in patent US6291677A, “Compounds having activity as inhibitors of cytochrome P450RAI” (Allergan Sales, Inc., priority 2000, dated 2001).

Legend:
psoriasis = settings: treatment with liarozole; cited from earlier work
skin = settings: humans; topical ATRA, oral 13-cis RA and etretinate; cited from earlier work
skin of hairless mice = assay: topical skin irritation test in hairless mice; type: in vivo, female hairless mice (Crl:SKH1-hrBR); settings: once daily days 1 through 5, mean±SD
Excerpt: Mice were housed individually throughout the dosing period.
Doses are disclosed as nmol/25 g.
The grading scale used is as follows:
Values can range from 0-9.
Values can range from 0-8.

RARβ = assay: chimeric receptor transactivation assay, RARβ; type: cell-based; settings: unit assumed
Excerpt: Assays described below measure the ability of a compound to bind to, and/or activate various retinoid receptor subtypes. When in these assays a compound binds to a given receptor subtype and activates the transcription of a reporter gene through that subtype, then the compound is considered an agonist of that receptor subtype. […] In the below described assays the ability of the compounds to bind to RARα, RARβ, RARγ,RXRα, RXRβ and RXRγ receptors, and the ability or inability of the compounds to activate transcription of a reporter gene through these receptor subtypes can be tested.
The results obtained in this assay are expressed in EC50 numbers, as they are also in the chimeric receptor transactivation assay. The results of ligand binding assay are expressed in Kd numbers.

RARα = target: T1, RARα (Homo sapiens, UniProt P10276); assay: ligand binding assay, RARα; settings: read-out: Kd RAR α
T1 sequence (P10276 1-462): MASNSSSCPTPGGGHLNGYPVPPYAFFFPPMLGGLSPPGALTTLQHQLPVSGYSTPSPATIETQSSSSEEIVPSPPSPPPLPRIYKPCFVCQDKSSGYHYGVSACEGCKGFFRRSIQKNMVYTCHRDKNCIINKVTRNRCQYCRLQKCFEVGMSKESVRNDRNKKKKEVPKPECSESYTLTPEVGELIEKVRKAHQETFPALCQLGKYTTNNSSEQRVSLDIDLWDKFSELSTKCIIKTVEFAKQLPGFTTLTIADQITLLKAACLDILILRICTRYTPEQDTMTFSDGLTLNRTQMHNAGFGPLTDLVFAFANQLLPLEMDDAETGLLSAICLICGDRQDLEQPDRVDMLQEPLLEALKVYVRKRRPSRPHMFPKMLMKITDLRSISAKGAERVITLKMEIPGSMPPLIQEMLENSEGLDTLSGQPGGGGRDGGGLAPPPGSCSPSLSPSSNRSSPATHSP
Excerpt: Assays described below measure the ability of a compound to bind to, and/or activate various retinoid receptor subtypes. […] In the below described assays the ability of the compounds to bind to RARα, RARβ, RARγ,RXRα, RXRβ and RXRγ receptors, and the ability or inability of the compounds to activate transcription of a reporter gene through these receptor subtypes can be tested.

P450RAI-1 = target: T2, P450RAI-1 (Homo sapiens, UniProt O43174); assay: cell-based; settings: intact HeLa, P450RAI-1 stably transfected, [3H]-RA, 3 hours at 37° C; read-out: P450RAI INHIBITION DATA INTACT HELA IC50
T2 sequence (O43174 1-497): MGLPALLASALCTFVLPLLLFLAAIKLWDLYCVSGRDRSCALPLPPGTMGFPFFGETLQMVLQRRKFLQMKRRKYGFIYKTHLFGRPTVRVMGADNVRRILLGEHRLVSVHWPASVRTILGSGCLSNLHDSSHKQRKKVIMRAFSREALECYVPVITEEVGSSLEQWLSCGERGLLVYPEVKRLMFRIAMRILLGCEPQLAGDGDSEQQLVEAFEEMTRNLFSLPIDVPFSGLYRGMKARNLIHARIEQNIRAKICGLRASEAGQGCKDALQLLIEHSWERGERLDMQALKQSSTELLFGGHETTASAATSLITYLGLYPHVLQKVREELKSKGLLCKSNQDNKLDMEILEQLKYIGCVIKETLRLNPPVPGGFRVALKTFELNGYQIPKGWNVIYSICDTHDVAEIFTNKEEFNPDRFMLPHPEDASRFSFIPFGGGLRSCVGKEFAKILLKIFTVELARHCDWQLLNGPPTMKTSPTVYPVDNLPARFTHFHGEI
Protocol: FIG. 1 is a schematic representation of the P450RAI cell based assay utilized to evaluate the ability of the compounds of the invention to inhibit the Cytochrome P450RAI enzyme.
P450RAI-1 Cell-Based Inhibitor Assay:
P450RAI-1 stably transfected HeLa cells are maintained in […] tissue culture dishes in Modified Eagle's Medium (MEM) containing 10% Fetal Bovine Serum (FBS) and 100 μg/ml hygromycin. Exponentially growing cells are harvested by incubating in trypsin. Cells are then washed with 1× Phosphate Buffered Saline (PBS) and plated in a 48-well plate at 5×10^5 cells in 0.2 ml MEM medium containing 10% FBS and 0.05 μCi [^3 H]-RA in the presence or absence of increasing concentrations of the test compounds. The compounds are diluted in 100% DMSO and then added in triplicate wells at either 10, 1 or 0.1 μM final concentration. As a positive control for RA metabolism inhibition, cells are also incubated with ketoconazole at 100, 10 and 1 μM. Cell are incubated for 3 hours at 37° C. […] The water soluble radioactivity is quantified using a β-scintillationcounter. IC50 values represent the concentration of inhibitor required to inhibit all-trans-RA metabolism by 50 percent and are derived manually from log-transformed data.

SMILES: Clc1cccc(C(c2ccc3[nH]cnc3c2)n2ccnc2)c1 (stereo not shown) [liarozole]
- retinoid-like effects, amelioration of psoriasis (psoriasis): effects similar to treatment by retinoids, for example amelioration of psoriasis

SMILES: CC1=C(/C=C/C(C)=C/C=C/C(C)=C\C(=O)O)C(C)(C)CCC1 [13-cis RA]
- skin irritation (skin): substantial skin irritation in humans

SMILES: CN(C1CC1)C1CCC(C)(C)c2cc(C#Cc3ccc(CC(=O)O)cc3)ccc21 (stereo not shown) [Compound 8, 4-[(5-(Cyclopropyl-methyl-amino)-8,8-dimethyl-5,6,7,8-tetrahydro-naphthalene-2-yl-ethynyl)-phenyl]-acetic acid]
- Cutaneous Toxicity Score (Blackjack Score) (skin of hairless mice; 100 nmole): 5 ± 2
- Cutaneous Toxicity Score (Blackjack Score) (skin of hairless mice; 300 nmole): 8 ± 3
- Cutaneous Toxicity Score (Blackjack Score) (skin of hairless mice; 1000 nmole): 12 ± 1
- (EFFICACY) RAR β (RARβ): 96%
- Kd (RARα): 10 µM

SMILES: CCOC(=O)/C=C(C)/C=C/C=C(C)/C=C/c1c(C)cc(OC)c(C)c1C [etretinate]
- skin irritation (skin): substantial skin irritation in humans

SMILES: CC1(C)CC(C)(C)c2cc(C#Cc3ccc(CC(=O)O)c(F)c3)cc(C3CC3)c2O1 [Compound 38, [4-(8-Cyclopropyl-2,2,4,4-tetramethyl-chroman-6-yl-ethynyl)-2-fluorophenyl]acetic acid]
- Cutaneous Toxicity Score (Blackjack Score) (skin of hairless mice; 100 nmole): 1 ± 1
- Cutaneous Toxicity Score (Blackjack Score) (skin of hairless mice; 1000 nmole): 10 ± 1
- Kd (RARα): 10 µM

SMILES: CC1=C(/C=C/C(C)=C/C=C/C(C)=C/C(=O)O)C(C)(C)CCC1 [all-trans-retinoic acid]
- skin irritation (skin): substantial skin irritation in humans

SMILES: CC(C)N(C)C1CCC(C)(C)c2cc(C#Cc3ccc(C(=O)O)cc3)ccc21 (stereo not shown) [Compound 26]
- IC50 (P450RAI-1): 10 µM
